The test system of series [1] is bloodstream-form T. brucei. Nature of the series: potency in Creek's minimal medium with inosine or hypoxanthine as purine source. Format: cell-based. As to conditions: Creek's minimal medium, same concentration of inosine or hypoxanthine.
The test system of another series is Tbb msh2+/-. Nature of the series: microbe, parasite or virus in culture. Format: cell-based, Trypanosoma brucei. The note with it: read-out: Tbb msh2+/- (EC50; µM) AVG.
A further series has as its system Tbb msh2+/+. The series is described as follows: microbe, parasite or virus in culture. Format: cell-based, Trypanosoma brucei. The note with it: read-out: Tbb msh2+/+ (EC50; µM) AVG.
The next series deals with Tbb msh2-/-. Nature of the series: microbe, parasite or virus in culture. Format: cell-based, Trypanosoma brucei. As to conditions: for EC50: read-out: Tbb msh2-/- (EC50; µM) AVG.
Series [2] deals with T. brucei H2 (hypoxanthine transporter 2 of T. brucei brucei). Also noted: method as in PMID 9364969. As to conditions: natural substrates; read-out: Transport (Ki value) T. brucei H2; cited from earlier work.
Series [3] concerns T. brucei brucei 427 tbat1^−/−. Nature of the series: microbe, parasite or virus in culture. It counts as cell-based. The note with it: for EC50: Trypanosoma brucei, read-out: In vitro activity (EC50) T. brucei brucei 427 tbat1^−/−.
In series [4] the test system is T. brucei brucei WT (strain 427). The series is described as follows: microbe, parasite or virus in culture. Format: cell-based. The note with it: for EC50: Trypanosoma brucei, read-out: In vitro activity (EC50) T. brucei brucei WT; for SI, in vitro selectivity index: EC50(HEK)/EC50(T. brucei brucei WT).
The subject of series [5] is HEK293 (human embryonic kidney 293T cells). Nature of the series: cells. The note with it: read-out: In vitro activity (EC50) HEK293.
For series [6], the system named is T. b. rhodesiense STIB 900. Nature of the series: microbe, parasite or virus in culture. Format: cell-based. As to conditions: Trypanosoma brucei, read-out: Trypanosoma brucei rhodesiense EC50.
Another series deals with P. falciparum K1 strain. The series is described as follows: microbe, parasite or virus in culture. As to conditions: Plasmodium falciparum, K1, read-out: Plasmodium falciparum EC50. Format: cell-based.
For series [7], the target named is T. brucei H2 (hypoxanthine transporter 2 of T. brucei brucei). It counts as cell-based. As to conditions: read-out: Transport (Ki value) T. brucei H2.
A short description of the next series: physchem. The note with it: buffer.
Where [8] appears, read: inhibition of 0.05 μM [3H]hypoxanthine uptake, 60 s, mean ± SEM, n ≥ 3.

Read-outs that look alike come from different tables or passages of the source.

The Ki is the dissociation constant of the complex between target and ligand, obtained from inhibition or displacement. As usually defined, the half-life is the time needed for the level to fall by half in the phase considered. A high value points to slow decline.

With `Cc1ccc(C(=O)Nc2ccc(S(=O)(=O)O)c3cc(S(=O)(=O)O)cc(S(=O)(=O)O)c23)cc1NC(=O)c1cccc(NC(=O)Nc2cccc(C(=O)Nc3cc(C(=O)Nc4ccc(S(=O)(=O)O)c5cc(S(=O)(=O)O)cc(S(=O)(=O)O)c45)ccc3C)c2)c1` [suramin], the “sensitivity (EC50) in medium with inosine compared to hypoxanthine as purine source” value in series [1] was “not significantly different”.

As for `N.N.[Cl][Pt][Cl]` [Cisplatin], the EC50 in the series on Tbb msh2+/- is 17.7 µM; in the series on Tbb msh2+/+, 13.4 µM; in the series on Tbb msh2-/- it was 13.6 µM.

Regarding `Nc1ncnc2[nH]cnc12` [Adenine], the inhibition constant (Ki) in series [2] was 3.2 ± 1.1 µM.

Take `N=C(N)c1ccc(/N=N/Nc2ccc(C(=N)N)cc2)cc1` [DIM, diminazene, reference compound]: the EC50 with Tbb msh2+/- (Trypanosoma brucei) was determined as 0.64 µM; in [3], 7.9 ± 0.7 µM; in [4], 0.26 ± 0.05 µM; in the series on Tbb msh2+/+ (Trypanosoma brucei), 0.5 µM; with Tbb msh2-/- (Trypanosoma brucei), 0.68 µM. The “fold lower activity against tbat1^−/− cells than wild type” value in series [3] (tbat1^−/− versus wild-type) came out at 30 fold.

In the case of `N=C(N)c1ccc(OCCCCCOc2ccc(C(=N)N)cc2)cc1` [Pentamidine], in series [1], the “sensitivity (EC50) in medium with inosine compared to hypoxanthine as purine source” value is listed as “not significantly different”. Besides, the EC50 in the series on Tbb msh2+/- (Trypanosoma brucei) turned out to be 0.011 µM; with Tbb msh2+/+ (Trypanosoma brucei) it was 0.011 µM; with Tbb msh2-/- (Trypanosoma brucei) it was 0.004 µM.

Regarding `Nc1nc2nc[nH]c2c(=O)[nH]1` [Guanine], the Ki in [2] was 0.36 ± 0.18 µM.

In the case of `Cn1nnc2c(C(N)=O)ncn2c1=O` [TMZ, temozolomide], the values for the EC50 in the series on Tbb msh2+/- (Trypanosoma brucei), in the series with Tbb msh2+/+ (Trypanosoma brucei) and with Tbb msh2-/- (Trypanosoma brucei) were 204 µM, 95 µM and 173 µM, respectively. Besides, the “potency against cells with impaired or lost MSH2 activity” value with Tbb msh2-/- is recorded as “reduced potency”.

As to `CN(N=Nc1nc(O)c2[nH]cnc2n1)C(=O)Oc1ccc([N+](=O)[O-])cc1` [Compound 4], the EC50 in series [5] is more than 250 µM. Also, the EC50 in series [3] was determined as 157 ± 55 µM. In [4], the “antitrypanosomal potency against BF T. brucei in vitro (in words)” value is “practically lost antitrypanosomal activity”; the “SI, in vitro selectivity index” value is given as more than 2; the EC50 was 114 ± 34 µM.

`CN(N=Nc1nc(N)c2[nH]cnc2n1)C(=O)Oc1ccc([N+](=O)[O-])cc1` [Compound 7]: the EC50 is more than 250 µM in [5], 20.7 ± 4.6 µM in series [3] and 19.4 ± 4.1 µM in series [4]. The “SI, in vitro selectivity index” value in series [4] is given as more than 13.

Consider `CN(/N=N/c1nc(OCc2ccccc2)c2nc[nH]c2n1)C(=O)Oc1ccccc1` [Compound 10], for which the EC50 in series [6] is 8.9 µM; in the series with P. falciparum K1 strain, more than 10 µM. For the same compound, the Ki in series [7] (setting [8]) stood at 22.5 ± 9.2 µM.

In the case of `CN(N=Nc1nc(N)c2[nH]cnc2n1)C(=O)Oc1ccccc1` [Compound 6], the EC50 was more than 100 µM in [5], 10.7 ± 0.4 µM in [3] and 10.4 ± 0.5 µM in series [4]. Also, in [4], the “SI, in vitro selectivity index” value was more than 24. For the same compound, in [7] (setting [8]), the Ki was determined as 0.46 ± 0.08 µM.

Consider `COS(C)(=O)=O` [MMS, methyl methanesulfonate], for which the figures for the EC50 in the series with Tbb msh2+/- (Trypanosoma brucei), in the series on Tbb msh2+/+ (Trypanosoma brucei) and in the series on Tbb msh2-/- (Trypanosoma brucei) were 57.2 µM, 48.9 µM and 46.7 µM, respectively.

Turning to `CCOC(=O)N(C)/N=N/c1nc(O)c2nc[nH]c2n1` [Compound 3], the EC50 is more than 250 µM in [5], 2.86 ± 0.13 µM in series [3] and 1.84 ± 0.08 µM in series [4]. Further, in [4], the “SI, in vitro selectivity index” value is on record as more than 136. The inhibition constant (Ki) in series [7] worked out at 0.12 ± 0.03 µM.

In turn, `CN(N=Nc1nc(O)c2[nH]cnc2n1)C(=O)Oc1ccccc1` [Compound 2] showed a half-life at 50 µM in the series “physchem” of 5.6 ± 0.3 h. Also, the EC50 with Tbb msh2+/- (Trypanosoma brucei) was 4.3 µM; in [5], more than 250 µM; in series [3] it was 1.21 ± 0.19 µM; in series [4] it was 0.8 ± 0.07 µM; in the series on Tbb msh2+/+ (Trypanosoma brucei), 2.3 µM; in the series with Tbb msh2-/- (Trypanosoma brucei), 6.8 µM. Besides, the “SI, in vitro selectivity index” value in series [4] was more than 312. For the same compound, the “potency against cells with impaired or lost MSH2 activity” value in the series on Tbb msh2-/- is given as “reduced potency”. In addition, the inhibitory constant (Ki) in series [7] (setting [8]) is 0.2 ± 0.06 µM.

Take `CC(=O)N(C)/N=N/c1nc(OCc2ccccc2)c2nc[nH]c2n1` [Compound 9]: the inhibition constant Ki in series [7] stood at 5.8 ± 0.01 µM.

With `O=c1[nH]cnc2nc[nH]c12` [Hypoxanthine], in [2], the Ki is 0.12 ± 0.03 µM.

Source of the values: paper PMC4604408, “Targeting the Parasite's DNA with Methyltriazenyl Purine Analogs Is a Safe, Selective, and Efficacious Antitrypanosomal Strategy” (Antimicrobial Agents and Chemotherapy, 2015).
